From article PMC10141580, “Cyclic Dichalcogenides Extend the Reach of Bioreductive Prodrugs to Harness Thiol/Disulfide Oxidoreductases: Applications to seco-Duocarmycins Targeting the Thioredoxin System” (ACS Central Science, 2023)
Read-outs that look alike come from different tables or passages of the source.

Test system: NCI-60 standardized human tumor cell line panel
Assay: cells
Assay type: cell-based
Conditions: for GI50: Homo sapiens

For `COc1cc2cc(C(=O)N3C[C@@H](CCl)c4c3cc(OC(=O)N3CCN(C(=O)CCC(=O)N5CCN(C)CC5)[C@H]5CSSC[C@H]53)c3ccccc43)[nH]c2c(OC)c1OC` [P-SS66C-CBI-TMI], the GI50 (PC-3, PC-3, read-out: GI50) was 0.48 µM, the GI50 (RPMI-8226, RPMI-8226, read-out: GI50) was 0.14 µM and the GI50 (RPMI-8226, cell line RPMI-8226 (LE:RPMI-8226), TMI sheet, read-out: NCI-60 screening: Log(GI50) (converted)) was 0.141 µM. For the same molecule, the GI50 (RPMI-8226, cell line RPMI-8226 (LE:RPMI-8226), TMI sheet, read-out: NCI-60 screening: Raw GI50) was 0.14 µM, the GI50 (RXF 393, RXF 393 (RE) cell line, log10 of GI50 in M, read-out: NCI-60 screening: Log(GI50) (converted)) was 0.0347 µM and the GI50 (RXF 393, RXF 393, read-out: GI50) was 0.035 µM. It also gave a GI50 (SF-268, SF-268, read-out: GI50) of 0.058 µM, a GI50 (SF-268, cell line SF-268 (CNS:SF-268), TMI sheet, read-out: NCI-60 screening: Log(GI50) (converted)) of 0.0589 µM and a GI50 (SF-295, SF-295, read-out: GI50) of 0.11 µM. For the same molecule, the GI50 (SF-295, cell line SF-295 (CNS:SF-295), TMI sheet, read-out: NCI-60 screening: Log(GI50) (converted)) was 0.112 µM, the GI50 (SF-295, cell line SF-295 (CNS:SF-295), TMI sheet, read-out: NCI-60 screening: Raw GI50) was 0.11 µM and the GI50 (SF-539, SF-539, read-out: GI50) was 0.039 µM. The GI50 (SK-MEL-5, SK-MEL-5, read-out: GI50) was 0.11 µM, the GI50 (SK-MEL-5, cell line SK-MEL-5 (ME:SK-MEL-5), TMI sheet, read-out: NCI-60 screening: Log(GI50) (converted)) was 0.112 µM and the GI50 (SK-MEL-5, cell line SK-MEL-5 (ME:SK-MEL-5), TMI sheet, read-out: NCI-60 screening: Raw GI50) was 0.11 µM. For the same molecule, the GI50 (SK-MEL-28, SK-MEL-28, read-out: GI50) was 0.16 µM, the GI50 (SK-MEL-28, cell line SK-MEL-28 (ME:SK-MEL-28), TMI sheet, read-out: NCI-60 screening: Log(GI50) (converted)) was 0.158 µM and the GI50 (SK-OV-3, SK-OV-3 (OV) cell line, log10 of GI50 in M, read-out: NCI-60 screening: Log(GI50) (converted)) was 0.0724 µM. The GI50 (SK-OV-3, SK-OV-3, read-out: GI50) was 0.072 µM, the GI50 (SN12C, SN12C (RE) cell line, log10 of GI50 in M, read-out: NCI-60 screening: Log(GI50) (converted)) was 0.0447 µM and the GI50 (SN12C, read-out: GI50) was 0.045 µM. For the same molecule, the GI50 (SNB-19, SNB-19, read-out: GI50) was 0.091 µM, the GI50 (SNB-19, cell line SNB-19 (CNS:SNB-19), TMI sheet, read-out: NCI-60 screening: Log(GI50) (converted)) was 0.0912 µM and the GI50 (SR, read-out: GI50) was 0.019 µM. It also gave a GI50 (SW-620, SW-620, read-out: GI50) of 0.13 µM, a GI50 (SW-620, cell line SW-620 (CO:SW-620), TMI sheet, read-out: NCI-60 screening: Log(GI50) (converted)) of 0.132 µM and a GI50 (SW-620, cell line SW-620 (CO:SW-620), TMI sheet, read-out: NCI-60 screening: Raw GI50) of 0.13 µM. The GI50 (T47D, T-47D, read-out: GI50) was 0.23 µM, the GI50 (T47D, cell line T-47D (BR:T-47D), TMI sheet, read-out: NCI-60 screening: Log(GI50) (converted)) was 0.229 µM and the GI50 (TK-10, TK-10 (RE) cell line, log10 of GI50 in M, read-out: NCI-60 screening: Log(GI50) (converted)) was 1.05 µM. The GI50 (TK-10, TK-10, read-out: GI50) was 1 µM, the GI50 (U-251, U251, read-out: GI50) was 0.081 µM and the GI50 (U-251, cell line U251 (CNS:U251), TMI sheet, read-out: NCI-60 screening: Log(GI50) (converted)) was 0.0813 µM. The GI50 (UACC-62, UACC-62, read-out: GI50) was 0.14 µM, the GI50 (UACC-62, cell line UACC-62 (ME:UACC-62), TMI sheet, read-out: NCI-60 screening: Log(GI50) (converted)) was 0.135 µM and the GI50 (UACC-62, cell line UACC-62 (ME:UACC-62), TMI sheet, read-out: NCI-60 screening: Raw GI50) was 0.14 µM. The GI50 (UACC-257, UACC-257, read-out: GI50) was 0.27 µM, the GI50 (UACC-257, cell line UACC-257 (ME:UACC-257), TMI sheet, read-out: NCI-60 screening: Log(GI50) (converted)) was 0.275 µM and the GI50 (UACC-257, cell line UACC-257 (ME:UACC-257), TMI sheet, read-out: NCI-60 screening: Raw GI50) was 0.27 µM. For the same molecule, the GI50 (cell line M14 (ME:M14), TMI sheet, read-out: NCI-60 screening: Log(GI50) (converted)) was 0.123 µM, the GI50 (cell line SF-539 (CNS:SF-539), TMI sheet, read-out: NCI-60 screening: Log(GI50) (converted)) was 0.0389 µM and the GI50 (cell line SR (LE:SR), TMI sheet, read-out: NCI-60 screening: Log(GI50) (converted)) was 0.0195 µM. The GI50 (cell line SR (LE:SR), TMI sheet, read-out: NCI-60 screening: Raw GI50) was 0.019 µM, the “NCI-60 screening: Log(RedIndex)” value (IGROV1 (OV) cell line, log10 reductive index vs P-CC60) was 1.07 and the “GI50/IC50, mean” value (NCI-60 vs ProliFiler, 19 overlapping cell lines) was 3.5. The “NCI-60 screening: Log(RedIndex)” value (NCI-H460 (LC) cell line, log10 reductive index vs P-CC60) was 1.36, the “NCI-60 screening: Log(RedIndex)” value (NCI-H522 (LC) cell line, log10 reductive index vs P-CC60) was 1.49 and the “NCI-60 screening: Log(RedIndex)” value (OVCAR-3 (OV) cell line, log10 reductive index vs P-CC60) was 1.16. For the same molecule, the “NCI-60 screening: Log(RedIndex)” value (OVCAR-4 (OV) cell line, log10 reductive index vs P-CC60) was 1.08, the “NCI-60 screening: Log(RedIndex)” value (OVCAR-5 (OV) cell line, log10 reductive index vs P-CC60) was 1.3 and the “NCI-60 screening: Log(RedIndex)” value (OVCAR-8 (OV) cell line, log10 reductive index vs P-CC60) was 1.26. For the same molecule, the “NCI-60 screening: Log(RedIndex)” value (PC-3 (PR) cell line, log10 reductive index vs P-CC60) was 0.82, the “NCI-60 screening: Log(RedIndex)” value (RXF 393 (RE) cell line, log10 reductive index vs P-CC60) was 1.48 and the “NCI-60 screening: Log(RedIndex)” value (SK-OV-3 (OV) cell line, log10 reductive index vs P-CC60) was 1.47. The “NCI-60 screening: Log(RedIndex)” value (SN12C (RE) cell line, log10 reductive index vs P-CC60) was 1.43, the “NCI-60 screening: Log(RedIndex)” value (TK-10 (RE) cell line, log10 reductive index vs P-CC60) was 0.43 and the “NCI-60 screening: Log(RedIndex)” value (cell line A549/ATCC (LC:A549/ATCC), TMI sheet) was 1.35. For the same molecule, the “NCI-60 screening: Log(RedIndex)” value (cell line BT-549 (BR:BT-549), TMI sheet) was 1.04, the “NCI-60 screening: Log(RedIndex)” value (cell line CCRF-CEM (LE:CCRF-CEM), TMI sheet) was 0.57 and the “NCI-60 screening: Log(RedIndex)” value (cell line COLO 205 (CO:COLO 205), TMI sheet) was 0.98. The “NCI-60 screening: Log(RedIndex)” value (cell line EKVX (LC:EKVX), TMI sheet) was 0.97, the “NCI-60 screening: Log(RedIndex)” value (cell line HCC-2998 (CO:HCC-2998), TMI sheet) was 1.45 and the “NCI-60 screening: Log(RedIndex)” value (cell line HCT-15 (CO:HCT-15), TMI sheet) was 0.85. For the same molecule, the “NCI-60 screening: Log(RedIndex)” value (cell line HCT-116 (CO:HCT-116), TMI sheet) was 0.99, the “NCI-60 screening: Log(RedIndex)” value (cell line HL-60(TB) (LE:HL-60(TB)), TMI sheet) was 1.19 and the “NCI-60 screening: Log(RedIndex)” value (cell line HOP-62 (LC:HOP-62), TMI sheet) was 1.16. For the same molecule, the “NCI-60 screening: Log(RedIndex)” value (cell line HOP-92 (LC:HOP-92), TMI sheet) was 1.15, the “NCI-60 screening: Log(RedIndex)” value (cell line HT29 (CO:HT29), TMI sheet) was 1.03 and the “NCI-60 screening: Log(RedIndex)” value (cell line K-562 (LE:K-562), TMI sheet) was 0.88. The “NCI-60 screening: Log(RedIndex)” value (cell line KM12 (CO:KM12), TMI sheet) was 1.2, the “NCI-60 screening: Log(RedIndex)” value (cell line LOX IMVI (ME:LOX IMVI), TMI sheet) was 1.2 and the “NCI-60 screening: Log(RedIndex)” value (cell line M14 (ME:M14), TMI sheet) was 1.09. The “NCI-60 screening: Log(RedIndex)” value (cell line MALME-3M (ME:MALME-3M), TMI sheet) was 1.07, the “NCI-60 screening: Log(RedIndex)” value (cell line MCF7 (BR:MCF7), TMI sheet) was 1.33 and the “NCI-60 screening: Log(RedIndex)” value (cell line MDA-MB-435 (ME:MDA-MB-435), TMI sheet) was 1.08. The “NCI-60 screening: Log(RedIndex)” value (cell line MOLT-4 (LE:MOLT-4), TMI sheet) was 0.98, the “NCI-60 screening: Log(RedIndex)” value (cell line NCI-H23 (LC:NCI-H23), TMI sheet) was 1.4 and the “NCI-60 screening: Log(RedIndex)” value (cell line NCI-H226 (LC:NCI-H226), TMI sheet) was 0.77. For the same molecule, the “NCI-60 screening: Log(RedIndex)” value (cell line RPMI-8226 (LE:RPMI-8226), TMI sheet) was 1.02, the “NCI-60 screening: Log(RedIndex)” value (cell line SF-268 (CNS:SF-268), TMI sheet) was 1.42 and the “NCI-60 screening: Log(RedIndex)” value (cell line SF-295 (CNS:SF-295), TMI sheet) was 1.15. For the same molecule, the “NCI-60 screening: Log(RedIndex)” value (cell line SF-539 (CNS:SF-539), TMI sheet) was 1.53, the “NCI-60 screening: Log(RedIndex)” value (cell line SK-MEL-5 (ME:SK-MEL-5), TMI sheet) was 1.17 and the “NCI-60 screening: Log(RedIndex)” value (cell line SK-MEL-28 (ME:SK-MEL-28), TMI sheet) was 1.35. For the same molecule, the “NCI-60 screening: Log(RedIndex)” value (cell line SNB-19 (CNS:SNB-19), TMI sheet) was 1.39, the “NCI-60 screening: Log(RedIndex)” value (cell line SR (LE:SR), TMI sheet) was 1.15 and the “NCI-60 screening: Log(RedIndex)” value (cell line SW-620 (CO:SW-620), TMI sheet) was 1.15. The “NCI-60 screening: Log(RedIndex)” value (cell line T-47D (BR:T-47D), TMI sheet) was 0.92, the “NCI-60 screening: Log(RedIndex)” value (cell line U251 (CNS:U251), TMI sheet) was 1.27 and the “NCI-60 screening: Log(RedIndex)” value (cell line UACC-62 (ME:UACC-62), TMI sheet) was 1.05. The “NCI-60 screening: Log(RedIndex)” value (cell line UACC-257 (ME:UACC-257), TMI sheet) was 0.86, the mean reductive index (mean over NCI cell lines, vs P-CC60) was 14 and the reductive index (span over NCI cell lines, vs P-CC60) was no more than 30.
